Source: patent US20230407298A1, “METHODS FOR INHIBITING CHMP7 EXPRESSION IN NEURONAL CELLS FOR THE TREATMENT OF NEURODEGENERATIVE DISORDERS” (THE JOHNS HOPKINS UNIVERSITY, priority 2020, published 2023)
Where two headings read alike, the source gives them in different places.

What was measured:
XPO1 [1] = molecular target: T1, XPO1 (Homo sapiens, UniProt O14980); test: Nuclear/cytoplasmic fractionation and qRT-PCR of C9orf72 iPSNs following Leptomycin B treatment; format: cell-based
Target sequence in this assay (O14980 whole entry): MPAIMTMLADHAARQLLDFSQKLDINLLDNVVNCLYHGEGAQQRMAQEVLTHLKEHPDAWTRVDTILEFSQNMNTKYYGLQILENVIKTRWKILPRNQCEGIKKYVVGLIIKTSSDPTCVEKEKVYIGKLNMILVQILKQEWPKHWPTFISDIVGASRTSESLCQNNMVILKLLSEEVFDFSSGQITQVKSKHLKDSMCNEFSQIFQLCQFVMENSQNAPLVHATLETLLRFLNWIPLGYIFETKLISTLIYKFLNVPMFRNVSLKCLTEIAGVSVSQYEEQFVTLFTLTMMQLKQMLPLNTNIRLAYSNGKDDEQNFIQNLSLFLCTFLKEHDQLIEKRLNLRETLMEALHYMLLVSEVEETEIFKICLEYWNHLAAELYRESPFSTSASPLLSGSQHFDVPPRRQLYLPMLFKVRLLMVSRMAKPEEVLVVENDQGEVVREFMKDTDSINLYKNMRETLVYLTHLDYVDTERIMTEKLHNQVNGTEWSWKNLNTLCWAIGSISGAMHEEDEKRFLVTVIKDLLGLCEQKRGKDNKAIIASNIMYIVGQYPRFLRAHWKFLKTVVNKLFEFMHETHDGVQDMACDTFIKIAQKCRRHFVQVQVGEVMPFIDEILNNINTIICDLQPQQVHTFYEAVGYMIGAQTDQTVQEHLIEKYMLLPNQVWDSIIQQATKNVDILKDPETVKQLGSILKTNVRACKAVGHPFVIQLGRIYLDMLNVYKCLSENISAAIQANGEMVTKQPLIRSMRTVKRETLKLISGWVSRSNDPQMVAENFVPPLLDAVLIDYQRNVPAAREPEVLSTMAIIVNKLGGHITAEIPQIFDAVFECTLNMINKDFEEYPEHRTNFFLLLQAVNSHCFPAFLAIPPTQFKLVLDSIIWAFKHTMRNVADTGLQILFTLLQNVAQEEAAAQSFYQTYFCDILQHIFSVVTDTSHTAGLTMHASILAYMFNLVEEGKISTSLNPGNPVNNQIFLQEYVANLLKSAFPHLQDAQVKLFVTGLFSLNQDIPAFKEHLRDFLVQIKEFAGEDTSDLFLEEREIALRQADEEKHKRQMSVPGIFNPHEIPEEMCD
Experimental: Ethanol was used as vehicle control. iPSNs were rinsed in 1×PBS and nuclear/cytoplasmic fractionation was performed with the NE-PER Nuclear and Cytoplasmic Extraction Kit (Thermo Fisher Scientific) according to manufacturer protocol. Following the addition of C2 buffer, 25 μL of sample was added to 25 μL 2× Laemmli buffer (BioRad) and set aside as protein input. An additional 25 μL was set aside on ice as RNA input. From each nuclear and cytoplasmic fraction obtained, 25 μL sample was added to 25 μL 2× Laemmli buffer for protein analysis. An additional 25 μL was added to 500 μL RLT buffer (QIAGEN) for RNA analysis. The remainder of each fraction was stored at −80° C. At the completion of the fractionation, 500 μL RLT buffer was added to the RNA input sample. RNA isolation, cDNA synthesis, and qRT-PCR were performed as described below. […] RNA from immunoprecipitated complexes or nuclear and cytoplasmic cellular fractions was isolated with a RNeasy kit (QIAGEN) according to manufacturer protocol. RNA concentrations were determined with a NanoDrop 1000 spectrophotometer (Thermo Fisher Scientific). […]

XPO1 [2] = molecular target: T1, XPO1; settings: non-neuronal cell lines (ref 24); cited from earlier work
Target sequence in this assay (O14980 whole entry, species assumed): as the sequence (O14980 whole entry) above

XPO1 [3] = molecular target: T1, XPO1; test: SIM of nuclei isolated from wildtype iPSNs following Leptomycin B treatment; format: cell-based; settings: 10 nM, ~18 hours
Target sequence in this assay (O14980 whole entry): as above
Experimental: Leptomycin B and ASO Treatment of iPSC Derived Neurons Leptomycin B: On day 18 of differentiation, 10 nM Leptomycin B (LMB, Cayman Chemicals) was added to the culture media and iPSNs were returned to the incubator for ˜18 hours before downstream analyses were conducted. Ethanol was used as vehicle control. Nuclei were isolated from iPSNs and postmortem human brain and spinal cord tissue using the Nuclei Pure Prep Nuclei Isolation Kit (Sigma Aldrich) following manufacturer protocol as previously described (13). Briefly, iPSN lysates were prepared by rinsing iPSNs with 1×PBS, adding mL supplied lysis buffer supplemented with DTT and Triton X-100 directly to each well, and harvesting iPSNs with a cell scraper. […] All lysates were transferred to a 50 mL conical tube and vortexed. Sucrose gradients were assembled following manufacturer protocol. A 1.85 M sucrose gradient was used to enrich for neuronal nuclei. Samples were centrifuged at 15,600 rpm and 4° C. using a Swi32T swinging bucket rotor and Beckman ultracentrifuge (Beckman Coulter) for 45 minutes. The supernatant was discarded, and the remaining nuclei pellet was resuspended in 1 mL of supplied nuclei storage buffer to wash the nuclei of any remaining sucrose. Resuspended nuclei were centrifuged at 2500 rpm and 4° C. for 5 minutes. The supernatant was once again discarded, and the resulting nuclei pellet was vortexed in 1 mL of supplied nuclei storage buffer to resuspend for downstream imaging analysis. […] Nuclei staining and super resolution imaging was performed as previously described (6). Following nuclei isolation, 10-50 μL of final nuclei/storage buffer suspension was centrifuged onto collagen coated (1 mg/mL; Advanced Biomatrix) slides with a CytoSpin 4 centrifuge (Thermo Fisher Scientific). Nuclei were immediately fixed with 4% PFA for 5 minutes, washed with 1×PBS 3×10 minutes and permeabilized with 1×PBST containing 0.1% Triton X-100 for 15 minutes. Nuclei were then blocked with 10% normal goat serum diluted in 1×PBS for 1 hour at room temperature and incubated in primary antibody diluted in block (10% normal goat serum in 1×PBS) overnight at 4° C. […] After 16-18 hours, nuclei were washed with 1×PBS 3×10 minutes, incubated in secondary antibody diluted in block (10% normal goat serum in 1×PBS) for 1 hour at room temperature (See Table B for antibody information). Nuclei were washed with 1×PBS 3×10 minutes and cover slipped using Prolong Gold Antifade Reagent (Invitrogen) and 18 mm×18 mm 1.5 high tolerance coverslips (MatTek). NeuN or GFP positive nuclei (see Description of the Figures) were identified via microscope eye pieces. A single z section ˜110 nm thick was acquired by widefield imaging to confirm NeuN or GFP positivity. The immunostained Nup or ESCRT-III protein was subsequently imaged by super resolution structured illumination microscopy (SIM) using a Zeiss ELYRA 51. For each image, 5 grid rotations and optimal z sectioning parameters were employed. Following image acquisition, SIM images were reconstructed using default SIM processing parameters with Zeiss Zen Black 2.3 SP1 software. Automated nucleoporin spot and volume analysis was conducted as previously described (6, 26) using Imaris version 9.2.0 (Bitplane) and the 3D suite plugin in FIJI version 1.52p. Nucleoporin spots were counted using automated spot detection. […] The total number of nucleoporin spots was determined using a 3D-rendering of segmented SIM images comprising the entire depth of each nucleus.

XPO1 [4] = molecular target: T1, XPO1; test: Nuclear/cytoplasmic fractionation and western blot of iPSNs following Leptomycin B treatment; format: cell-based; settings: iPSNs (FIGS. 12A-12C)
Target sequence in this assay (O14980 whole entry): as above
Experimental: Leptomycin B and ASO Treatment of iPSC Derived Neurons Leptomycin B: On day 18 of differentiation, 10 nM Leptomycin B (LMB, Cayman Chemicals) was added to the culture media and iPSNs were returned to the incubator for ˜18 hours before downstream analyses were conducted. Ethanol was used as vehicle control. iPSNs were rinsed in 1×PBS and nuclear/cytoplasmic fractionation was performed with the NE-PER Nuclear and Cytoplasmic Extraction Kit (Thermo Fisher Scientific) according to manufacturer protocol. Following the addition of C2 buffer, 25 μL of sample was added to 25 μL 2× Laemmli buffer (BioRad) and set aside as protein input. An additional 25 μL was set aside on ice as RNA input. From each nuclear and cytoplasmic fraction obtained, 25 μL sample was added to 25 μL 2× Laemmli buffer for protein analysis. An additional 25 μL was added to 500 μL RLT buffer (QIAGEN) for RNA analysis. The remainder of each fraction was stored at −80° C. At the completion of the fractionation, 500 μL RLT buffer was added to the RNA input sample. RNA isolation, cDNA synthesis, and qRT-PCR were performed as described below. Western blot analysis was conducted as described below. Equal volume of each sample (10 μL) was loaded in acrylamide gels. […] The supernatant was transferred to a new Eppendorf tube and protein concentrations were determined using the BCA protein estimation assay kit (Thermo Fisher Scientific). […]

stathmin-2 mRNA = test: qRT-PCR for full length and truncated stathmin-2 mRNA; format: cell-based, human; settings: C9orf72 and sALS iPSNs; day 46; 3 week exposure; GAPDH normalization
Experimental: (§1) Non-targeting scrambled control (676630): […] (SEQ ID NO:2), CHMP7 ASO 1 (1508916): […] (SEQ ID NO:3), CHMP7 ASO 2 (1508917): […] (SEQ ID NO:4), and CHMP7 ASO 3 (1508918): […] (SEQ ID NO:14) were generously provided by Ionis Pharmaceuticals. On day 25 of differentiation, ASOs were added to the culture media at concentrations of […] as indicated in Description of the Figures. Media was exchanged and ASO replaced every 3 days until iPSNs were subjected to downstream analyses on day 40 of differentiation for western blot, SIM, and glutamate excitotoxicity and day 46 of differentiation for stathmin-2 qRT-PCR, Ran GTPase localization, and TDP-43 localization.
RNA from iPSNs was isolated with a RNeasy kit (QIAGEN) according to manufacturer protocol. RNA concentrations were determined with a NanoDrop 1000 spectrophotometer (Thermo Fisher Scientific). For CHMP7 ASO experiments, RNA was isolated on day 46 of differentiation following 3 weeks exposure to 5 μM CHMP7 ASO2 or scrambled control ASO. For CHMP7 overexpression experiments, RNA was isolated on day 32 of differentiation (2 weeks after plasmid nucleofection). […]

[5] = test system: POM121, Nup133, Nup50, FG Nups; test: SIM imaging of nucleoporins in nuclei isolated from CHMP7 ASO treated iPSNs; format: cell-based, human; settings: 5 μM, 2-week exposure
Experimental: C9orf72 repeat ASO: Sense strand targeting G4C2 ASO (619251) (13) was generously provided by Ionis Pharmaceuticals. On day 20 of differentiation, 5 μM sense targeting ASO was added to the culture media. Media was exchanged and ASO replaced on day 22 of differentiation and downstream analyses were performed on day 25 of differentiation. CHMP7 ASO: Non-targeting scrambled control (676630): […] (SEQ ID NO: 2), CHMP7 ASO 1 (1508916): […] (SEQ ID NO: 3), CHMP7 ASO 2 (1508917): […] (SEQ ID NO: 4), and CHMP7 ASO 3 (1508918): […] (SEQ ID NO:14) were generously provided by Ionis Pharmaceuticals. On day 25 of differentiation, ASOs were added to the culture media at concentrations of 1, 5, or 10 μM as indicated in Description of the Figures. Media was exchanged and ASO replaced every 3 days until day 40 of differentiation.
Nuclei were isolated from iPSNs and postmortem human brain and spinal cord tissue using the Nuclei Pure Prep Nuclei Isolation Kit (Sigma Aldrich) following manufacturer protocol as previously described (13). Briefly, iPSN lysates were prepared by rinsing iPSNs with 1×PBS, adding […] supplied lysis buffer supplemented with DTT and Triton X-100 directly to each well, and harvesting iPSNs with a cell scraper. Postmortem brain and spinal cord lysates were prepared by homogenizing 150 mg fresh frozen tissue directly in supplied lysis buffer with a dounce homogenizer. All lysates were transferred to a 50 mL conical tube and vortexed. Sucrose gradients were assembled following manufacturer protocol. A 1.85 M sucrose gradient was used to enrich for neuronal nuclei. Samples were centrifuged at 15,600 rpm and 4° C. using a Swi32T swinging bucket rotor and Beckman ultracentrifuge (Beckman Coulter) for 45 minutes. The supernatant was discarded, and the remaining nuclei pellet was resuspended in 1 mL of supplied nuclei storage buffer to wash the nuclei of any remaining sucrose. Resuspended nuclei were centrifuged at 2500 rpm and 4° C. for 5 minutes. The supernatant was once again discarded, and the resulting nuclei pellet was vortexed in 1 mL of supplied nuclei storage buffer to resuspend for downstream imaging analysis. For western blots, washed nuclei were lysed in RIPA buffer as described below.
Nuclei staining and super resolution imaging was performed as previously described (6). Following nuclei isolation, 10-50 μL of final nuclei/storage buffer suspension was centrifuged onto collagen coated (1 mg/mL; Advanced Biomatrix) slides with a CytoSpin 4 centrifuge (Thermo Fisher Scientific). Nuclei were immediately fixed with 4% PFA for 5 minutes, washed with 1×PBS 3×10 minutes and permeabilized with 1×PBST containing 0.1% Triton X-100 for 15 minutes. Nuclei were then blocked with 10% normal goat serum diluted in 1×PBS for 1 hour at room temperature and incubated in primary antibody diluted in block (10% normal goat serum in 1×PBS) overnight at 4° C. (See Table B for antibody information). After 16-18 hours, nuclei were washed with 1×PBS 3×10 minutes, incubated in secondary antibody diluted in block (10% normal goat serum in 1×PBS) for 1 hour at room temperature (See Table B for antibody information). Nuclei were washed with 1×PBS 3×10 minutes and cover slipped using Prolong Gold Antifade Reagent (Invitrogen) and 18 mm×18 mm 1.5 high tolerance coverslips (MatTek). NeuN or GFP positive nuclei (see Description of the Figures) were identified via microscope eye pieces. A single z section ˜110 nm thick was acquired by widefield imaging to confirm NeuN or GFP positivity. The immunostained Nup or ESCRT-III protein was subsequently imaged by super resolution structured illumination microscopy (SIM) using a Zeiss ELYRA 51. For each image, 5 grid rotations and optimal z sectioning parameters were employed. Following image acquisition, SIM images were reconstructed using default SIM processing parameters with Zeiss Zen Black 2.3 SP1 software. […]

TDP-43 = test: Immunostaining and confocal imaging for TDP-43 in iPSNs; format: cell-based, human; settings: sALS iPSNs; day 46; 3-week treatment
Experimental: as §1
On day 12 of differentiation, iPSNs were plated in 24 well optical bottom plates (Cellvis). […] Nuclear intensity and N/C ratios were calculated with FIJI as previously described (80). […]

iPSNs = test: Glutamate toxicity, propidium iodide (PI) incorporation; format: cell-based, human
Experimental: On day 12 of differentiation, iPSNs were plated in 24 well optical bottom plates (Cellvis) at a density of 250,000 neurons per well. Neurons were rinsed with 1×PBS and fed with fresh stage 3 media daily remove dead cells and debris until day 25 of differentiation. On day 25 of differentiation, ASO treatment was initiated as described above. Every 3 days, iPSNs were rinsed 3× with 1×PBS and media and ASO were replaced. On day 40 of differentiation, iPSNs were washed with 1×PBS to remove any remaining debris and dead cells. Media was replaced with ACSF (Tocris) containing 0 or 10 μM glutamate (Sigma Aldrich). iPSNs were incubated at 37° C. with 5% CO2 for 4 hours. After 3.5 hours, one drop of NucBlue Live ReadyProbes (Thermo Fisher Scientific) and […] (Thermo Fisher Scientific) and returned to the incubator for 30 mins. iPSNs were imaged in an environmentally controlled chamber with a Zeiss LSM 800 confocal microscope. […] PI and DAPI spots were counted using FIJI.
On day 12 of differentiation, iPSNs were plated in 24 well optical bottom plates (Cellvis) at a density of 250,000 neurons per well. […] After 3.5 hours, one drop of NucBlue Live ReadyProbes (Thermo Fisher Scientific) and 1 μM propidium iodide (Thermo Fisher Scientific) and returned to the incubator for 30 minutes. iPSNs were imaged in an environmentally controlled chamber with a Zeiss LSM 800 confocal microscope. […]

[6] = C9orf72 and sALS iPSNs, day 40, compared to scrambled control ASO
[7] = C9orf72 iPSNs, compared to scrambled control ASO

Compound: CCC(=C/[C@H](C)C/C=C/C(C)=C/[C@@H](C)C(=O)[C@@H](C)[C@H](O)[C@@H](C)C/C(C)=C/C(=O)O)/C=C/[C@@H]1OC(=O)C=C[C@@H]1C [LMB, Leptomycin B]
- presence of G4C2 repeat RNA in the nuclear fraction (XPO1 [1]; C9orf72 iPSNs (FIG. 12D)): strongly increases
- presence of G2C4 repeat RNA in the nuclear fraction (XPO1 [1]; C9orf72 iPSNs (FIG. 12E)): strongly increases
- nuclear levels of DDX3X (XPO1 [2]): increases
- nuclear levels of RanBP1 (XPO1 [2]): increases
- CHMP7 in the nucleus (XPO1 [3]): significant increase
- Nup50 immunoreactivity in nuclei (XPO1 [3]): reduction
- Nup133 immunoreactivity in nuclei (XPO1 [3]): reduction
- POM121 immunoreactivity in nuclei (XPO1 [3]): reduction
- VPS4 immunoreactivity in nuclei (XPO1 [3]): increase
- nuclear levels of DDX3X (XPO1 [4]): increases
- nuclear levels of RanBP1 (XPO1 [4]): increases

Compound: TGTTACCCTCAGATACCGCC (listed as DNA, chemistry not given here) [CHMP7 ASO 2, CHMP7 targeting ASO provided by Ionis Pharmaceuticals; targets human CHMP7 pre-mRNA, RNase H based degradation]
- full length stathmin-2 mRNA levels (stathmin-2 mRNA): restored to levels observed in control iPSNs
- truncated stathmin-2 mRNA levels (stathmin-2 mRNA): restored to levels observed in control iPSNs
- Nup50 expression in iPSN nuclei and NPCs [5, 6]: significantly restored
- Nup133 expression in iPSN nuclei and NPCs [5, 6]: significantly restored
- POM121 expression in iPSN nuclei and NPCs [5, 6]: significantly restored
- Nup50 expression in iPSN nuclei and NPCs [5, 7]: significantly restored
- Nup133 expression in iPSN nuclei and NPCs [5, 7]: significantly restored
- POM121 expression in iPSN nuclei and NPCs [5, 7]: significantly restored
- nuclear TDP-43 localization (TDP-43): restored
- sensitivity to glutamate induced excitotoxicity as measured by propidium iodide (PI) incorporation (iPSNs; C9orf72 and sALS iPSNs, two week treatment (FIG. 20I)): significantly decreased
- sensitivity to glutamate induced excitotoxicity as measured by propidium iodide (PI) incorporation (iPSNs; C9orf72 iPSNs, 2-week exposure to 5 μM ASO, 10 μM glutamate 4 hours (FIG. 4H)): mitigates
